Measured values from ChEMBL document CHEMBL5143724, “Small Molecules Promote Selective Denaturation and Degradation of Tubulin Heterodimers through a Low-Barrier Hydrogen Bond” (J Med Chem, 2022).
Each block holds one molecule with its values, some of them ahead of it. Calls of active or inactive are those of the source. No cut-off for these calls is given here.

Experiments:
[1] = tested on: HeLa; experiment: Downregulation of Beta tubulin level in human HeLa cells at 1 uM measured for 6 hrs by tandem mass tag quantitative proteomic analysis; format: functional, cell-based
[2] = biological target: T1, Tubulin (Homo sapiens) (UniProt P68371+Q9H4B7+P0DPH7+P68366+Q13509+Q71U36+P04350+Q3ZCM7+P07437+P68363+Q9BQE3+Q6PEY2+Q13885+Q9BVA1+Q9BUF5); experiment: Induction of tubulin degradation in human HeLa cells assessed as ubiquitin of total protein at 0.01 to 100 uM incubated for 16 hrs by immunoblot analysis; format: cell-based; conditions: dose 0.01-100 µM
[3] = biological target: T2, Tubulin (Sus scrofa) (UniProt P02554+P02550); experiment: Inhibition of porcine tubulin polymerization measured every 1 min for 30 mins in presence of GTP by microplate reader analysis; format: protein assay; conditions: dose 5-20 µM, DDE = dose-dependent effect
[4] = biological target: T3, Tubulin alpha (Homo sapiens) (UniProt P0DPH7+P68366+Q71U36+P68363+Q9BQE3+Q6PEY2+A6NHL2+Q9NY65); experiment: Induction of Alpha tubulin degradation in human HeLa cells at 1 uM incubated for 16 hrs in presence of vinblastine by immunoblot analysis; format: cell-based
[5] = biological target: T3, Tubulin alpha (Homo sapiens); experiment: Induction of Alpha tubulin degradation in human HeLa cells assessed as increase in ubiquitination level of Alpha tubulin at 1 to 10 uM incubated for 6 hrs by immunoblot analysis; format: cell-based; conditions: dose 1-10 µM
[6] = tested on: HeLa; experiment: Downregulation of Beta tubulin level in human HeLa cells at 1 uM by immunoblot analysis; format: functional, cell-based; conditions: time 1-16 hrs, TDE = time-dependent effect
[7] = tested on: SU-DHL-6; experiment: Downregulation of Beta tubulin level in human SU-DHL-6 cells incubated for 24 hrs by immunoblot analysis; format: functional, cell-based; conditions: dose 0.1-10 µM, DDE = dose-dependent effect
[8] = biological target: T3, Tubulin alpha (Homo sapiens); experiment: Induction of Alpha tubulin degradation in human HeLa cells at 1 uM incubated for 16 hrs in presence of pironetin by immunoblot analysis; format: cell-based
[9] = tested on: HeLa; experiment: Downregulation of Beta tubulin level in human HeLa cells incubated for 24 hrs by immunoblot analysis; format: functional, cell-based; conditions: dose 0.1-10 µM, DDE = dose-dependent effect
[10] = tested on: Tubulin beta (Homo sapiens), P68371+Q9H4B7+Q13509+P04350+Q3ZCM7+P07437+Q13885+Q9BVA1+Q9BUF5+A6NNZ2 [UNDEFINED MUTATION]; experiment: Induction of FLAG tagged Beta tubulin E198D mutant (unknown origin) transfected in HeLa cells incubated for 16 hrs by immunoblotting analysis; format: cell-based
[11] = tested on: HCT-116; experiment: In vivo antitumor activity against human HCT-116 cells xenografted in mouse model assessed as reduction in beta tubulin level at 80 mg/kg administered once through tail vein injection measured after 24 hrs by immunoblot analysis; format: functional, organism-based
[12] = tested on: Tubulin beta (Homo sapiens), P68371+Q9H4B7+Q13509+P04350+Q3ZCM7+P07437+Q13885+Q9BVA1+Q9BUF5+A6NNZ2 [UNDEFINED MUTATION]; experiment: Induction of FLAG tagged Beta tubulin (unknown origin) Y200F mutant transfected in human HeLa cells incubated for 16 hrs by immunoblotting analysis; format: cell-based
[13] = tested on: HeLa; experiment: Reduction in Alpha tubulin mRNA expression in human HeLa cells at 1 uM measured upto 16 hrs by qPCR analysis; format: functional, cell-based
[14] = biological target: T1, Tubulin (Homo sapiens); experiment: Induction of tubulin […] (unknown origin) assessed as increase in turbidity at 5 to 20 uM measured every one min for 30 mins by absorbance based analysis; format: protein-complex assay; conditions: dose 5-20 µM
[15] = biological target: T2, Tubulin (Sus scrofa); experiment: Induction of porcine tubulin aggregation assessed as formation of spherical sized tubulin aggregates at 20 uM incubated for 4 hrs by TEM analysis; format: protein assay
[16] = tested on: HeLa; experiment: Induction of FLAG tagged Beta tubulin E198G mutant (unknown origin) transfected in HeLa cells incubated for 16 hrs by immunoblotting analysis; format: cell-based; conditions: Homo sapiens
[17] = tested on: HeLa; experiment: Induction of FLAG tagged Beta tubulin E198Q mutant (unknown origin) transfected in HeLa cells incubated for 16 hrs by immunoblotting analysis; format: cell-based; conditions: Homo sapiens
[18] = tested on: HCT-116; experiment: In vivo antitumor activity against human HCT-116 cells xenografted in Balb/c nude athymic mouse assessed as inhibition of tumor growth administered ip once a week and measured every 2 days for 24 days; format: functional, organism-based; conditions: dose 10-40 mg/kg, time 2.0 day, DDE = dose-dependent effect
[19] = tested on: HCT-116; experiment: Antiproliferative activity against human HCT-116 cells assessed as cell viability at 0.001 to 100 uM incubated for 72 hrs by MTT assay; format: functional, cell-based; conditions: dose 0.001-100 µM
[20] = tested on: HeLa; experiment: Reduction in Beta tubulin mRNA expression in human HeLa cells at 1 uM measured upto 16 hrs by qPCR analysis; format: functional, cell-based
[21] = biological target: T1, Tubulin (Homo sapiens); experiment: Induction of tubulin aggregation in human HeLa cells by size-exclusion chromatography; format: cell-based
[22] = tested on: NCI-H460; experiment: In vivo antitumor activity against human NCI-H460 cells xenografted in Balb/c nude athymic mouse assessed as inhibition of tumor growth administered ip once a week and measured every 2 days for 24 days; format: functional, organism-based; conditions: dose 10-40 mg/kg, time 2.0 day, DDE = dose-dependent effect
[23] = biological target: Tubulin alpha; experiment: Induction of Alpha tubulin degradation in human HeLa cells incubated for 24 hrs by immunoblot analysis; format: cell-based
[24] = tested on: HCT-116; experiment: Induction of apoptosis in human HCT-116 cells assessed as accumulation of cells at G2/M phase 0.1 to 10 uM incubated for 16 hrs by propidium iodide staining based flow cytometry; format: functional, cell-based; conditions: dose 0.1-10 µM
[25] = biological target: T4, Tubulin beta (Homo sapiens) (UniProt P68371+Q9H4B7+Q13509+P04350+Q3ZCM7+P07437+Q13885+Q9BVA1+Q9BUF5+A6NNZ2); experiment: Induction of Beta tubulin degradation in human HeLa cells at 1 uM incubated for 16 hrs in presence of vinblastine by immunoblot analysis; format: cell-based
[26] = tested on: HCT-116; experiment: Downregulation of Beta tubulin level in human HCT-116 cells incubated for 24 hrs by immunoblot analysis; format: functional, cell-based; conditions: dose 0.1-10 µM, DDE = dose-dependent effect
[27] = tested on: HeLa; experiment: Induction of apoptosis in human HeLa cells assessed as accumulation of cells at G2/M phase 0.1 to 10 uM incubated for 16 hrs by propidium iodide staining based flow cytometry; format: functional, cell-based; conditions: dose 0.1-10 µM
[28] = tested on: HCT-116; experiment: Downregulation of Alpha tubulin level in human HCT-116 cells incubated for 24 hrs by immunoblot analysis; format: functional, cell-based; conditions: dose 0.1-10 µM, DDE = dose-dependent effect
[29] = tested on: HCT-116; experiment: In vivo antitumor activity against human HCT-116 cells xenografted in mouse model assessed as reduction in alpha tubulin level at 80 mg/kg administered once through tail vein injection measured after 24 hrs by immunoblot analysis; format: functional, organism-based
[30] = biological target: T4, Tubulin beta (Homo sapiens); experiment: Induction of Beta tubulin degradation in human HeLa cells at 1 uM incubated for 16 hrs in presence of maytansine by immunoblot analysis; format: cell-based
[31] = biological target: Tubulin beta; experiment: Induction of Beta tubulin degradation in human HeLa cells incubated for 24 hrs by immunoblot analysis; format: cell-based
[32] = tested on: HCT-116; experiment: Downregulation of Alpha tubulin level in human HCT-116 cells at 1 uM by immunoblot analysis; format: functional, cell-based; conditions: time 1-16 hrs, TDE = time-dependent effect
[33] = tested on: HeLa; experiment: Antiproliferative activity against human Hela cells assessed as cell viability at 0.001 to 100 microM incubated for 72 hrs by MTT assay; format: functional, cell-based; conditions: dose 0.001-100 µM
[34] = tested on: HCT-116; experiment: Downregulation of Beta tubulin level in human HCT-116 cells at 1 uM by immunoblot analysis; format: functional, cell-based; conditions: time 1-16 hrs, TDE = time-dependent effect
[35] = biological target: T1, Tubulin (Homo sapiens); experiment: Destabilization of tubulin (unknown origin) assessed as melting temperature at 30 uM incubated for 20 mins by differential scanning fluorimetry; format: protein-complex assay
[36] = tested on: HeLa; experiment: Downregulation of Alpha tubulin level in human HeLa cells incubated for 24 hrs by immunoblot analysis; format: functional, cell-based; conditions: dose 0.1-10 µM, DDE = dose-dependent effect
[37] = biological target: T3, Tubulin alpha (Homo sapiens); experiment: Induction of Alpha tubulin degradation in human HeLa cells at 1 uM incubated for 16 hrs in presence of maytansine by immunoblot analysis; format: cell-based
[38] = biological target: T4, Tubulin beta (Homo sapiens); experiment: Induction of Beta tubulin degradation in human HeLa cells at 1 uM incubated for 16 hrs in presence of pironetin by immunoblot analysis; format: cell-based
[39] = biological target: T4, Tubulin beta (Homo sapiens); experiment: Binding affinity to Beta-tubulin colchicine binding site in human HeLa cells assessed as inhibition of tubulin-EBI adduct formation at 2 to 25 uM pretreated fo 1 hr with compound followed by EBI addition measured after 2 hrs by Western blotting analysis; format: cell-based; conditions: dose 2-25 µM, time 3.0 hrs
[40] = tested on: HeLa; experiment: Downregulation of Alpha tubulin level in human HeLa cells at 1 uM by immunoblot analysis; format: functional, cell-based; conditions: time 1-16 hrs, TDE = time-dependent effect
[41] = tested on: NCI-H460; experiment: Antiproliferative activity against human NCI-H460 cells assessed as cell viability at 0.001 to 100 uM incubated for 72 hrs by MTT assay; format: functional, cell-based; conditions: dose 0.001-100 µM
[42] = tested on: SU-DHL-6; experiment: Downregulation of Alpha tubulin level in human SU-DHL-6 cells incubated for 24 hrs by immunoblot analysis; format: functional, cell-based; conditions: dose 0.1-10 µM, DDE = dose-dependent effect
[43] = tested on: HeLa; experiment: Downregulation of Alpha tubulin level in human HeLa cells at 1 uM measured for 6 hrs by tandem mass tag quantitative proteomic analysis; format: functional, cell-based
[44] = biological target: T4, Tubulin beta (Homo sapiens); experiment: Induction of wild type flag tagged Beta tubulin (unknown origin) transfected in HeLa cells incubated for 16 hrs by immunoblotting analysis; format: cell-based
[45] = tested on: NCI-H460; experiment: Downregulation of Beta tubulin level in human NCI-H460 cells incubated for 24 hrs by immunoblot analysis; format: functional, cell-based; conditions: dose 0.1-10 µM, DDE = dose-dependent effect
[46] = biological target: T4, Tubulin beta (Homo sapiens); experiment: Induction of Beta tubulin degradation in human HeLa cells assessed as increase in ubiquitination level of Beta tubulin at 1 to 10 uM incubated for 6 hrs by immunoblot analysis; format: cell-based; conditions: dose 1-10 µM
[47] = tested on: NCI-H460; experiment: Downregulation of Alpha tubulin level in human NCI-H460 cells incubated for 24 hrs by immunoblot analysis; format: functional, cell-based; conditions: dose 0.1-10 µM, DDE = dose-dependent effect
[48] = tested on: HeLa; experiment: Antiproliferative activity against human HeLa cells assessed as cell viability at 0.001 to 100 uM incubated for 48 hrs by MTT assay; format: functional, cell-based; conditions: dose 0.001-100 µM
[49] = biological target: T4, Tubulin beta (Homo sapiens); experiment: Induction of Beta tubulin degradation in human HeLa cells at 0.001 to 100 uM incubated for 16 hrs by immunoblotting analysis; format: cell-based; conditions: dose 0.001-100 µM

T2 sequence (P02550 whole entry, looked up): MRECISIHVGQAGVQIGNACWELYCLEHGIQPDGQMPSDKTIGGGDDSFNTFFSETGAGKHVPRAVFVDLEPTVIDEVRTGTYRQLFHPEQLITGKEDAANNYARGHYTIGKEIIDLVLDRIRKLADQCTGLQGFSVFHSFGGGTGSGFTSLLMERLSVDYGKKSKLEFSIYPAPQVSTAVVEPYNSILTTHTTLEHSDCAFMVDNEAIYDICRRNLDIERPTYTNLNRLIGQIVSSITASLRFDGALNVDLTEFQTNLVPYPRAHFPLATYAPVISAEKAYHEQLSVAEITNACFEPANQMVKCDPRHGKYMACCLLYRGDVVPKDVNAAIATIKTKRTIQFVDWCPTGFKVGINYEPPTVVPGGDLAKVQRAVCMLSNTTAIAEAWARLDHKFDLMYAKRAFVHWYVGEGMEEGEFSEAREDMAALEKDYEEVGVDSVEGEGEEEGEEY
T2 sequence (P02554 whole entry, looked up): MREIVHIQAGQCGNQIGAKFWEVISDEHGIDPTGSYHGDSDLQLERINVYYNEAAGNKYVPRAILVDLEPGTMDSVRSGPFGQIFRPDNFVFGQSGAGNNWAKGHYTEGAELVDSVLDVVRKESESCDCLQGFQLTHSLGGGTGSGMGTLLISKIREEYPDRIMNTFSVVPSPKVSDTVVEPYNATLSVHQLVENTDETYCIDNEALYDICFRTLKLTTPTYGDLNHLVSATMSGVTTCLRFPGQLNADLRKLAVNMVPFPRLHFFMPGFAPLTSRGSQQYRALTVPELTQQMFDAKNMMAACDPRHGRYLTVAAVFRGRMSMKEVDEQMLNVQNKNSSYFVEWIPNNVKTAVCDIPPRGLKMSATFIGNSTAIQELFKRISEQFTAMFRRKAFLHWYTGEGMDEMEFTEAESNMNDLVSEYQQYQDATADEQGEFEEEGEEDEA

- Activity [2]: Active
- inhibition [3]: Dde
- Activity [4]: Active
- Activity [5]: Active
- Activity [8]: Active
- Activity [10]: Active
- Activity [12]: Active
- Activity [14]: Active
- Activity [15]: Active
- Activity [21]: Active
- DC50 [23]: 182 nM
- Activity [25]: Active
- Activity [30]: Active
- DC50 [31]: 524 nM
- Tm [35]: 51.5 °C
- Activity [37]: Active
- Activity [38]: Active
- Activity [39]: Active
- Activity [44]: Active
- Activity [46]: Active
SMILES: c1ccc(Oc2cccc(CNc3cc4c(cn3)[nH]c3ccccc34)c2)cc1
- Activity [1]: Active
- Activity [6]: Tde
- Activity [7]: Dde
- Activity [9]: Dde
- Activity [11]: Active
- Activity [13]: Active
- Activity [16]: Active
- Activity [17]: Active
- Activity [18]: Dde
- Activity [19]: Active
- Activity [20]: Active
- Activity [22]: Dde
- Activity [24]: Active
- Activity [26]: Dde
- Activity [27]: Active
- Activity [28]: Dde
- Activity [29]: Active
- Activity [32]: Tde
- Activity [33]: Active
- Activity [34]: Tde
- Activity [36]: Dde
- Activity [40]: Tde
- Activity [41]: Active
- Activity [42]: Dde
- Activity [43]: Active
- Activity [45]: Dde
- Activity [47]: Dde

- Activity [49]: Active
SMILES: c1ccc(Oc2cccc(CNc3cc4ccccc4cn3)c2)cc1
- Activity [48]: Active
